In patent US6482412B1, “Polypeptide having human HIV inhibitory activity, a gene encoding the polypeptide, a method to produce the polypeptide” (Gakkou Houjin Kitasato Gakuen, priority 1999, dated 2002):
In brackets after ≈: the same amount, converted by molar mass.

Assays:
Type in all cases: cell-based
[1] = Cytotoxicity on uninfected MT-4 cells, MTT method; conditions: human, five days
Protocol: (§1) Anti-HIV activity was measured from suppression of cytopathic effect caused by HIV infection. The HIV infected MT-4 cell (2.5×10^4 cells/well, degree of multiple infection: 0.01) was added to 96 well titer plate immediately after infection. At the same time, K97-0003 peptide of various concentration was also added to the plate. In order to examine cytopathic effect of K97-0003 peptide on MT-4 cell, cells uninfected by HIV was incubated with K97-0003 peptide of various concentrations in the same manner. After five days of incubation at 37° C. in a CO2 incubator, the number of cell survived was measured by MTT method.
(2) CC50: It is the concentration of K97-0003 peptide that causes cytotoxicity to 50% of cells, and is the parameter of cytotoxic effect of the peptide.

HIV infected MT-4 cell = test: Anti-HIV activity by suppression of cytopathic effect, MTT method; conditions: Human immunodeficiency virus 1, MT4, 120 h, read-out: BC50
Protocol: as §1
(1) EC50: It is the concentration of K97-0003 peptide which inhibits 50% of the cytotoxicity by HIV infection, and is the parameter of anti-HIV activity of the peptide.

[2] = tested on: syncytium formation by fusion of HeLa/CD4/LTR cells and HeLa135/env (T-tropic HIV-1)/Tat cells; test: cells; conditions: Human immunodeficiency virus 1, HeLa, read-out: IC50 of syncytium formation ability
Protocol: 50 μl of HeLa/CD4 /LTR cell suspension prepared to 1.6×10^5 cells/ml was inoculated into every each well of 96 well plate (IWAKI MICROPLATE 96well), and 10 μl of the sample, diluted in a series of concentration with phosphate buffer physiological saline, was added to every each well. Then, 50 μl of HeLa135/env(envelope glycoprotein: originated from T-tropic HIV-1)/Tat cell suspension prepared to 1.6×10^5 cells/ml was dispensed to every well, and incubated in an incubator at 37° C. under 5% CO2 air current for 24 hours. After removal of the culture fluid from each well, 20 μl of cell lysis solution was added to every each well, and the plate was left at the room temperature for about 10 minutes.
Continuously, 100 μl of chromogenic substrate solution (Z-buffer: 80 μl+4 mg/ml o-nitrophenyl-β-D-glactopyranoside:20 μl) was added to each well, and reacted in the incubator at 37° C. […] After 80 minutes, 25 μl of reaction stop solution (2M Na2CO3) was added to it, and the absorbance at 405 nm was measured using colorimeter (Organ ON SystemMicrowell System Reader 510). Syncytium formation ability was calculated from the obtained absorbance by the following formula.
Syncytium formation ability=the absorbance of the well with sample addition/absorbance of control×100

CN1C(=O)[C@@H](c2cc(Cl)c(O)c(Cl)c2)NC(=O)[C@@H]2NC(=O)[C@@H](c3cc(Cl)c(O)c(Cl)c3)NC(=O)[C@H](NC(=O)C(=O)c3cc(Cl)c(O)c(Cl)c3)Cc3c[nH]c4c(cccc34)-c3cc2cc(c3O)Oc2ccc(cc2)C[C@H]1C(=O)N[C@@H](C(=O)O)c1ccc(O)cc1 [Chloropeptine, chloropeptin, reference compound]
CC50 at 5 days [1]: > 600 µM
EC50 (HIV infected MT-4 cell): 1.6 µM
IC50 [2]: 1.7 µg/mL (≈ 1.28 µM)
